From article PMC10916382, “Repurposing screen identifies novel candidates for broad-spectrum coronavirus antivirals and druggable host targets” (Antimicrobial Agents and Chemotherapy, 2024)
Like-named read-outs stand apart in the source and are kept apart here.

Legend:
SARS-CoV-2 [1] = tested on: SARS-CoV-2
HCoV-229E = experiment: microbe, parasite or virus in culture; assay type: cell-based, Homo sapiens sapiens
in vitro [2] = settings: human
in vitro [3] = settings: for viability: Anti-SARS-CoV-2 screening on Calu-3 cells: viability [% of control], Calu-3 cells
SARS-CoV-2 [4] = tested on: SARS-CoV-2; remark: listed apart in the source
[5] = Huh-7.5/F-Luc cells, maximum tested dose 5 µM
[6] = Calu-3 cells, immunofluorescence imaging
[7] = Human coronavirus 229E, Huh7.5, read-out: IC50 (µM), HCoV 229E

SMILES | CC50 (µM) (Huh-7.5/F-Luc cells; [5]) | Anti-SARS-CoV-2 screening on Calu-3 cells: intracellular SARS-CoV-2 infection measured via immunofluorescence imaging [% of control] (SARS-CoV-2 [1]; [6]) | IC50 (HCoV-229E; [7]) [µM] | viability at 5 µM (in vitro [2]) [%] | viability (in vitro [3]) [%] | viability at 48 h, 5 µM (in vitro [3]) [%] | virus load in the culture fluid (SARS-CoV-2 [4]) | CC50 (µM) (Huh-7.5/F-Luc cells; Huh-7.5 cells, dose series, maximum tested dose 5 µM) | % cell viability at max. dose [5 µM] (Huh-7.5/F-Luc cells; at max. dose 5 µM) [%] | Anti-SARS-CoV-2 screening on Calu-3 cells: viability [% of control] (SARS-CoV-2 [1]; Calu-3 cells) | outcome against confirmation criteria of the SARS-CoV-2 counter-screen (<50% infected cell, >75% total cells) (SARS-CoV-2 [1]; Calu-3 cells, single dose of 5 µM) | IC50 (HCoV-229E; HCoV 229E infection, dose series, max. dose 5 µM, read-out: IC50) [µM] | CC50 (µM) (Huh-7.5/F-Luc cells) | Anti-SARS-CoV-2 screening on Calu-3 cells: intracellular SARS-CoV-2 infection measured via immunofluorescence imaging [% of control] (SARS-CoV-2 [1])
CN(C)C(=O)NC1(c2ccccc2)CCN(CCC[C@]2(c3ccc(Cl)c(Cl)c3)CCCN(C(=O)c3ccccc3)C2)CC1 [RFM-003-485-5] | greater than maximum tested dose | 114.56 % of control | 1.64 | 172 | 109 | – | – | – | – | – | – | – | – | –
Cn1cc(C2=C(c3c4n(c5ccccc35)CCC(CN)C4)C(=O)NC2=O)c2ccccc21 (stereo not shown) [RFM-009-039-1] | greater than maximum tested dose | 111.69 % of control | 1.73 | 154 | 95.9 | – | – | – | – | – | – | – | – | –
OCCN1CCN(CCC=C2c3ccccc3Sc3ccc(C(F)(F)F)cc32)CC1 [RFM-000-079-3] | greater than maximum tested dose | 104.52 % of control | 1.73 | 145 | – | 105 | – | – | – | – | – | – | – | –
COc1cc(F)ccc1-c1cc(Nc2cc(CS(C)(=N)=O)ccn2)ncc1F (single isomer, unassigned; (+)) [(+)-BAY-1251152, reference compound] | – | 51.46 % of control | – | – | – | – | reduced virus load | greater than maximum tested dose | 115.26 | 100.11 % of control | did not meet our stringent confirmation criteria | 0.13 | – | –
CN(C)CCC=C1c2ccccc2C(C)(C)c2ccccc21 [RFM-000-885-5] | greater than maximum tested dose | 109.53 % of control | 1.34 | 152 | 93 | – | – | – | – | – | – | – | – | –
CCCCC1=Cc2cc3c(cc2C1N1CCN(C)CC1)OCO3 (stereo not shown) [RFM-005-200-6] | greater than maximum tested dose | 112.43 % of control | 2.5 | 145 | 102 | – | – | – | – | – | – | – | – | –
OCCN1CCN(CCCN2c3ccccc3Sc3ccc(Cl)cc32)CC1 [RFM-000-391-8] | greater than maximum tested dose | 116.90 % of control | 1.84 | 181 | – | 110 | – | – | – | – | – | – | – | –
CC(=O)[C@]1(O)Cc2c(O)c3c(c(O)c2[C@@H](O[C@H]2C[C@H](N)[C@H](O)[C@H](C)O2)C1)C(=O)c1ccccc1C3=O [RFM-000-458-0] | – | – | 1.55 | 103 | – | 15 | – | – | – | – | – | – | greater than maximum tested dose | 139.58 % of control
CCCN(CCC)C(=O)C(Cc1ccc(OCCCN2CCN(C)CC2)cc1)NC(=O)c1cccc(Cl)c1 (stereo not shown) [RFM-012-155-1] | greater than maximum tested dose | 95.12 % of control | 3.67 | 126 | 104 | – | – | – | – | – | – | – | – | –
CC(C)NCC(O)COc1ccc(CC(=O)OCCC23CC4CC(CC(C4)C2)C3)cc1 (stereo not shown) [RFM-010-929-5] | greater than maximum tested dose | 113.56 % of control | 1.76 | 122 | 90.2 | – | – | – | – | – | – | – | – | –
Cc1c(NCCN2CCCC2)cc(C(=O)C(C)(C)C)cc1N1CCN(c2ncnc3[nH]nc(Br)c23)CC1 [RFM-011-974-4] | greater than maximum tested dose | 103.98 % of control | 1.4 | 124 | 104 | – | – | – | – | – | – | – | – | –
CC(C(O)c1ccccc1)N(C)CC=C1c2ccccc2CCc2ccccc21 (stereo not shown) [RFM-010-015-2] | greater than maximum tested dose | 107.49 % of control | 1.96 | 122 | 107 | – | – | – | – | – | – | – | – | –
CC(=O)N(C)C1(c2ccccc2)CCN(CCC[C@]2(c3ccc(Cl)c(Cl)c3)CCCN(C(=O)c3ccccc3)C2)CC1 [RFM-000-080-6] | greater than maximum tested dose | 106.27 % of control | 1.5 | 131 | 113 | – | – | – | – | – | – | – | – | –
